The source of these data is US9028845B2, “Chimeric immunomodulatory compounds and methods of using the same-IV” (Dynavax Technologies Corporation, priority 2001, dated 2015).

The data set relates to human PBMCs. Put plainly: Human PBMC cytokine response assay (IFN-γ and IFN-α in cell-free medium by ELISA), with or without cPLGA. The format is cell-based. For orientation: ELISA stands for enzyme-linked immunosorbent assay.
[1] abbreviates: Example 59, 0.8 ug/ml, donor 48.
Setting [2] is: Example 59, 0.8 ug/ml, donor 177.
[3] abbreviates: Example 59, 0.8 ug/ml, donor 272.
Setting [4] is: Example 59, 0.8 ug/ml, donor 273.
The mark [5] stands for this setting: Example 59, 0.8 ug/ml, mean of four donors.
Where [6] appears, read: Example 59, 4 ug/ml, mean of four donors.
[7] abbreviates: Example 59, 20 ug/ml, donor 177.
Setting [8] is: Example 59, 20 ug/ml, donor 272.
Setting [9] is: Example 59, 20 ug/ml, donor 273.
Where [10] appears, read: Example 59, 20 ug/ml, mean of four donors.
The mark [11] stands for this setting: Table 24, mean of donors 28234-28237.
[12] abbreviates: mean of donors 28185-28188, Table 15.
Setting [13] is: mean of donors 28218-28221, 20 μg/ml, 24 h.

With “(5′-TCGACGT-HEG)2-glycerol-HEG-5′-ACTTAGAGGTTCAGTAGG-3′ (SEQ ID NO: 157) (DNA, all phosphorothioate, methylation of C not given here; Two heptamer DNA arms joined by HEG spacers and glycerol branching to the chain) [Compound C-202]”, the IFN-α was found to be 830 pg/mL under setting [1]; 102 pg/mL under setting [2]; 102 pg/mL under setting [3]; 102 pg/mL under setting [4]; 2250 pg/mL (Example 59, 4 ug/ml, donor 48); 2482 pg/mL (Example 59, 4 ug/ml, donor 177). In addition, the IFN-α reads like this: (Example 59, 4 ug/ml, donor 272) 1222 pg/mL; (Example 59, 4 ug/ml, donor 273) 215 pg/mL; (Example 59, 20 ug/ml, donor 48) 1901 pg/mL; under setting [7], 2742 pg/mL; under setting [8], 612 pg/mL; under setting [9], 339 pg/mL. In addition, the IFN-α mean runs as follows: under setting [5], 284 pg/mL; under setting [6], 1542 pg/mL; under setting [10], 1399 pg/mL.
Turning to “5′-AGATGAT-3′-HEG-5′-ACGTTCG-3′-HEG-5′-TCGTCGA-3′ [Compound C-60]”, the IFN-α by setting is: (Table 13, donor 28156) 5 pg/mL; (Table 13, donor 28157) 22 pg/mL; (Table 13, donor 28158) 3 pg/mL; (Table 13, donor 28159) 1 pg/mL. Moreover, the IFN-γ reads like this: (Table 13, donor 28156) 304 pg/mL; (Table 13, donor 28157) 209 pg/mL; (Table 13, donor 28158) 26 pg/mL; (Table 13, donor 28159) 38 pg/mL. Where the note is “Table 13, mean of donors”, this substance registered an IFN-α mean of 8 pg/mL. This substance gave an IFN-γ mean (Table 13, mean of donors) of 144 pg/mL.
As to “5′-TCGACGT-3′-HEG-5′-TCGACGT-3′-HEG-5′-TCGACGT-3′-HEG-5′-TCGACGT-3′ [Compound C-71]”, the IFN-α reads like this: (Table 24, donor 28234) 17 pg/mL; (Table 24, donor 28235) 30 pg/mL; (Table 24, donor 28236) 538 pg/mL; (Table 24, donor 28237) 1665 pg/mL. In addition, the IFN-γ by setting is: (Table 24, donor 28234) 30 pg/mL; (Table 24, donor 28235) 168 pg/mL; (Table 24, donor 28236) 448 pg/mL; (Table 24, donor 28237) 1663 pg/mL. For the same substance, the IFN-α mean under setting [11] came to 563 pg/mL. The same substance yielded an IFN-γ mean under setting [11] of 577 pg/mL.
As for “(5′-TCGACGT-HEG)2-glycerol-HEG-5′-TTGGCCAAGCTTGGCCAA (SEQ ID NO: 116) (DNA, all phosphorothioate, methylation of C not given here; Two heptamer DNA arms joined by HEG spacers and glycerol branching to the chain) [Compound C-178]”, the IFN-α turned out to be 336 pg/mL under setting [1]; 1150 pg/mL under setting [2]; 149 pg/mL under setting [3]; 102 pg/mL under setting [4]; 16300 pg/mL (Example 59, 4 ug/ml, donor 48); 8304 pg/mL (Example 59, 4 ug/ml, donor 177). Also, the IFN-α reads like this: (Example 59, 4 ug/ml, donor 272) 1677 pg/mL; (Example 59, 4 ug/ml, donor 273) 1732 pg/mL; (Example 59, 20 ug/ml, donor 48) 13946 pg/mL; under setting [7], 19973 pg/mL; under setting [8], 15050 pg/mL; under setting [9], 3971 pg/mL. The IFN-α mean runs as follows: under setting [5], 434 pg/mL; under setting [6], 7003 pg/mL; under setting [10], 13235 pg/mL.
Regarding “5′-TCGTCGA-3′-HEG-5′-AACGTTC-3′-HEG-5′-TCGTCGA-3′ [Compound C-55]”, the IFN-α by setting is: (Table 13, donor 28156) 9 pg/mL; (Table 13, donor 28157) 5 pg/mL; (Table 13, donor 28158) 63 pg/mL; (Table 13, donor 28159) 3 pg/mL. Also, the IFN-γ runs as follows: (Table 13, donor 28156) 511 pg/mL; (Table 13, donor 28157) 566 pg/mL; (Table 13, donor 28158) 55 pg/mL; (Table 13, donor 28159) 186 pg/mL. For the same substance, the IFN-α mean (Table 13, mean of donors) stood at 20 pg/mL. This substance also had an IFN-γ mean (Table 13, mean of donors) of 329 pg/mL.
The substance “(5′-TCGTCGA-3′-HEG)2-glycerol-HEG-5′-AACGTTC-3′ [Compound C-96]” showed an IFN-α (Table 24, donor 28234) of 16 pg/mL; an IFN-α (Table 24, donor 28235) of 120 pg/mL; an IFN-α (Table 24, donor 28236) of 608 pg/mL; an IFN-α (Table 24, donor 28237) of 993 pg/mL. For the same substance, the IFN-γ reads like this: (Table 24, donor 28234) 21 pg/mL; (Table 24, donor 28235) 239 pg/mL; (Table 24, donor 28236) 354 pg/mL; (Table 24, donor 28237) 1396 pg/mL. Under setting [11], this substance gave an IFN-α mean of 434 pg/mL. In addition, under setting [11], the IFN-γ mean was 503 pg/mL. The “IFN-a” value (donor 28185, Table 15) was found to be 2550 pg/mL; the “IFN-a” value (donor 28186, Table 15) was 446 pg/mL; the “IFN-a” value (donor 28187, Table 15) came out at 118 pg/mL; the “IFN-a” value (donor 28188, Table 15) came to 40 pg/mL. Besides, the “IFN-g” value is, setting by setting: (donor 28185, Table 15) 163 pg/mL; (donor 28186, Table 15) 22 pg/mL; (donor 28187, Table 15) 195 pg/mL; (donor 28188, Table 15) 12 pg/mL. Under setting [12], the “IFN-a (pg/ml) mean” value turned out to be 788 pg/mL. Besides, under setting [12], the “IFN-g (pg/ml) mean” value stood at 98 pg/mL. Further, the “IFN-a (pg/ml) ×2” value (mean ×2, Table 15) is 1577 pg/mL. In addition, for the setting “mean ×4, Table 15”, the “IFN-g (pg/ml) ×4” value worked out at 392 pg/mL. The “IFN-α induction, in words” value (used alone) is listed as “induced more IFN-α relative to linear CICs with HEG spacers”.
With “5′-GsGsGsGs-3′-C3-5′-ATCGAT-3′-C3-5′-TGATGCATCA-3′-C3-5′-ATCGAT-3′-C3-5′-GsGsGsGsGsG-3′ (s = phosphorothioate linkages, otherwise linkages are phosphodiester) (TGATGCATCA is SEQ ID NO: 105) (listed as DNA, chemistry not fully specified) [Compound C-87]”, under “donor 28218, 20 μg/ml, 24 h”, the “IFN-a (pg/ml) 28218” value was determined as 3075 pg/mL and the “IFN-g (pg/ml) 28218” value came out at 83 pg/mL. Where the note is “donor 28219, 20 μg/ml, 24 h”, the “IFN-a (pg/ml) 28219” value is 32 pg/mL and the “IFN-g (pg/ml) 28219” value worked out at 24 pg/mL. In addition, under “donor 28220, 20 μg/ml, 24 h”, the “IFN-a (pg/ml) 28220” value stood at 4269 pg/mL and the “IFN-g (pg/ml) 28220” value turned out to be 38 pg/mL. Besides, for the setting “donor 28221, 20 μg/ml, 24 h”, the “IFN-a (pg/ml) 28221” value came out at 265 pg/mL and the “IFN-g (pg/ml) 28221” value came out at 977 pg/mL. Also, under setting [13], the “IFN-a (pg/ml) mean” value amounted to 1910 pg/mL and the “IFN-g (pg/ml) mean” value was 281 pg/mL. Moreover, the “IFN-α induction, in words” value (used alone) is given as “remarkable induction of IFN-α”.
For the substance “(5′-TAGTCAT-3′-HEG)2-glycerol-HEG-5′-AACCTTC-3′ [Compound M-3, reference compound]”, the IFN-α by setting is: (Example 58, 0.8 ug/ml, donor 1) 52 pg/mL; (Example 58, 0.8 ug/ml, donor 2) 52 pg/mL; (Example 58, 0.8 ug/ml, donor 3) 52 pg/mL; (Example 58, 0.8 ug/ml, donor 4) 52 pg/mL; (Example 58, 4 ug/ml, donor 1) 52 pg/mL; (Example 58, 4 ug/ml, donor 2) 52 pg/mL. The substance further displayed an IFN-α (Example 58, 4 ug/ml, donor 3) of 52 pg/mL; an IFN-α (Example 58, 4 ug/ml, donor 4) of 52 pg/mL; an IFN-α (Example 58, 20 ug/ml, donor 1) of 52 pg/mL; an IFN-α (Example 58, 20 ug/ml, donor 2) of 52 pg/mL; an IFN-α (Example 58, 20 ug/ml, donor 3) of 52 pg/mL; an IFN-α (Example 58, 20 ug/ml, donor 4) of 52 pg/mL. The IFN-α under setting [1] amounted to 102 pg/mL; the IFN-α under setting [2] was found to be 102 pg/mL; the IFN-α under setting [3] was 102 pg/mL; the IFN-α under setting [4] worked out at 102 pg/mL; the IFN-α (Example 59, 4 ug/ml, donor 48) worked out at 102 pg/mL; the IFN-α (Example 59, 4 ug/ml, donor 177) came to 102 pg/mL. Further, the IFN-α (Example 59, 4 ug/ml, donor 272) was determined as 102 pg/mL; the IFN-α (Example 59, 4 ug/ml, donor 273) amounted to 102 pg/mL; the IFN-α (Example 59, 20 ug/ml, donor 48) amounted to 102 pg/mL; the IFN-α under setting [7] is 102 pg/mL; the IFN-α under setting [8] is 102 pg/mL; the IFN-α under setting [9] amounted to 102 pg/mL. In addition, the IFN-α mean runs as follows: (Example 58, 0.8 ug/ml, mean of four individuals) 52 pg/mL; (Example 58, 4 ug/ml, mean of four individuals) 52 pg/mL; (Example 58, 20 ug/ml, mean of four individuals) 52 pg/mL; under setting [5], 102 pg/mL; under setting [6], 102 pg/mL; under setting [10], 102 pg/mL.
“5′-TCGTC-3′-HEG-5′-TCGTC-3′-HEG-5′-TCGTC-3′-HEG-5′-TCGTC-3′ [Compound C-43]”: the IFN-α was determined as 0 pg/mL (Table 10, donor 28042); 14 pg/mL (Table 10, donor 28043); 20 pg/mL (Table 10, donor 28044); 0 pg/mL (Table 10, donor 28045). Besides, the IFN-γ runs as follows: (Table 10, donor 28042) 128 pg/mL; (Table 10, donor 28043) 536 pg/mL; (Table 10, donor 28044) 566 pg/mL; (Table 10, donor 28045) 16 pg/mL. Where the note is “Table 10, mean of donors”, this substance registered an IFN-α mean of 8 pg/mL. This substance also displayed an IFN-γ mean (Table 10, mean of donors) of 312 pg/mL. The “activity when formulated with cPLGA, in words” value (formulated with cPLGA) is “induced considerable IFN-γ and IFN-α when formulated with cPLGA”. Further, the “IFN-γ induction, in words” value (used alone) is on record as “induce IFN-γ when used alone”.
